Patent EP1324760B1 (Board of Regents of the University of Nebraska, priority 2000, dated 2002)
Converted amounts (≈) assume the structure as drawn. Read-outs that look alike come from different tables or passages of the source.

Legend:
partition coefficient = type: physicochemical
[1] = aqueous solubility (concentration at saturation); type: physicochemical; conditions: water, read-out: Conc. at Saturation

| logP (partition coefficient; studies in the laboratory) | flux over one hour (MDCK monolayers; MDCK monolayers, 60-minute period, share of the amount added that crossed to the other side) | logP (partition coefficient) | solubility [1] [mg/mL] | flux over one hour (MDCK monolayers; MDCK) | Compound |
| --- | --- | --- | --- | --- | --- |
| -1.82 | approximately 10% |  |  |  | CN(CC(=O)O)C(=N)N.O [creatine monohydrate, reference compound] |
|  |  | -1.13 | 205.9 ± 1.5 (≈ 1290 mM) | approximately 20% | CCOC(=O)CN(C)C(=N)N [Creatine Ethyl Ester, creatine ethyl ester] |
|  |  | -0.975 | 89.26 ± 0.8 (≈ 403 mM) |  | CN(CC(=O)OCc1ccccc1)C(=N)N [Creatine Benzyl Ester, creatine benzyl ester] |
